Literature values in patent publication US20070275075A1, “Ezetimibe compositions” (priority 2006, published 2007).

Experiments:
[1] = not given; remark: listed apart in the source

solubility in ethanol, methanol, and acetone (ethanol, methanol, acetone): freely to very soluble | solubility in water (water): practically insoluble | stability at ambient temperature [1]: stable
Compound: O=C1[C@H](CC[C@H](O)c2ccc(F)cc2)[C@@H](c2ccc(O)cc2)N1c1ccc(F)cc1 [Ezetimibe, 1-(4-fluorophenyl)-3(R)-[3-(4-fluorophenyl)-3(S)-hydroxypropyl]-4(S)-(4-hydroxyphenyl)-2-azetidinone]
